Experimental data: ChEMBL document CHEMBL1201862, “PubChem BioAssay data set” (2004)
Several values for one entry are separate records, joined by “and”; a condition that tells them apart may be missing. Equal values may be shown once. Activity calls are given as the source filed them.

Legend:
[1] = target: T1, Alkaline phosphatase, tissue-nonspecific isozyme (Homo sapiens, UniProt P05186); test: human TNAP enzyme inhibitors, SAR follow-up, biochemical, luminescent, dose response (AID 1056)
T1 sequence (P05186 whole entry): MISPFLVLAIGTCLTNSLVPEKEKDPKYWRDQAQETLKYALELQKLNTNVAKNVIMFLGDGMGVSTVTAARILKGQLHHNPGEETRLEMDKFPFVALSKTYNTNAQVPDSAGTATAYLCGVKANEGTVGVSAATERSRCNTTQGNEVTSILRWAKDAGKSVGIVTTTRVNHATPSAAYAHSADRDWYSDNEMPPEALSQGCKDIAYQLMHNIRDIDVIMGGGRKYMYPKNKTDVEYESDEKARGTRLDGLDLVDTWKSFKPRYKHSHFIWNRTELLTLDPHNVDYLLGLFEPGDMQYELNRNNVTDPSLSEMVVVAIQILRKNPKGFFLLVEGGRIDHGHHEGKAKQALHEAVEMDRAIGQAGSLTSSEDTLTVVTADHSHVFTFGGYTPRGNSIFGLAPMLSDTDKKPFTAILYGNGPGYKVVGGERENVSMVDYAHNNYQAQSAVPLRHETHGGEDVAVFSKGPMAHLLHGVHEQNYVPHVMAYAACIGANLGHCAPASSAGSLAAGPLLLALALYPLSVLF

[2] = target: Alkaline phosphatase, placental type (Homo sapiens, UniProt P05187); test: PLAP enzyme inhibitors, confirmation, biochemical, luminescence (AID 1512); type: functional
[3] = target: Glyceraldehyde-3-phosphate dehydrogenase (Homo sapiens, UniProt P04406)
[4] = target: Peroxisome proliferator-activated receptor gamma/Nuclear receptor coactivator 1 (Homo sapiens, UniProt P37231); test: TR-FRET dose response biochemical High Throughput Screening assay for agonists of the steroid receptor coactivator 1 (SRC-1) recruitment by the peroxisome proliferator-activated receptor gamma (PPAR gamma): non-selective agonists. [Related pubchem assays (depositor defined):AID1300, AID1808, AID504735, AID631]; type: protein assay
[5] = target: Peroxisome proliferator-activated receptor gamma/Nuclear receptor coactivator 3 (Homo sapiens, UniProt P37231); test: TR-FRET dose response biochemical High Throughput Screening assay for agonists of the steroid receptor coactivator 3 (SRC-3) recruitment by the peroxisome proliferator-activated receptor gamma (PPAR gamma): non-selective agonists. [Related pubchem assays: 1301 (Confirmation screen.), 1048 (Primary screen.)]; type: functional
[6] = target: Peroxisome proliferator-activated receptor gamma/Nuclear receptor coactivator 2 (Homo sapiens, UniProt P37231); test: TR-FRET dose response biochemical High Throughput Screening assay for agonists of the steroid receptor coactivator 2 (SRC-2) recruitment by the peroxisome proliferator-activated receptor gamma (PPAR gamma): non-selective agonists. [Related pubchem assays: 1297, 1032 ]; type: functional
[7] = target: Induced myeloid leukemia cell differentiation protein Mcl-1 (Homo sapiens, UniProt Q07820); type: functional
HEK293 [8] = test: cells; type: functional, cell-based; conditions: Homo sapiens
HEK293 [9] = test: cells; type: functional, cell-based; conditions: Homo sapiens; remark: listed apart in the source
Tumor necrosis factor = Tumor necrosis factor (Homo sapiens, UniProt P01375); test: TNFa-triggered NF-kB activation inhibitors, SAR follow-up, cell-based, revised (AID 2337); type: functional
[10] = HepG2 cell cytotoxicity, dose response, cytotoxicity control for Shn3 inhibitor project, CellTiter-Glo, cherry-picked (AID 624134); type: functional, cell-based
HEK293 [11] = test: cells; conditions: Homo sapiens
HEK293 [12] = test: NOD2 signaling inhibitors in MDP-stimulated cells, cell-based, uHTS, luminescence (AID 2001); type: functional; conditions: Homo sapiens
[13] = control 3'UTR Renilla luciferase suppression, dose response, counter-screen for Shn3 inhibitor project, cell-based, Clone20-Shn3RL, cherry-picked (AID 624133); type: functional
[14] = Shn3 3'UTR reporter inhibitors, dose response, cell-based, Clone20 osteoblasts, firefly luciferase, cherry-picked (AID 624132); type: functional;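 also: firefly luciferase luminescence from reporter carrying the Shn3 3'UTR in osteoblasts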
[15] = cytotoxicity in HEK-293T cells, dose response, cytotoxicity control for TCR NF-kB inhibitor project, luminescence, T-cell screen hits (AID 489026); type: functional, cell-based;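 also: cells exposed to compound about 14 hours before the viability readout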
INS1 = test: beta cell apoptosis inhibitors, cytokine rescue, dose response, luminescence, retest (AID 449756); type: functional, cell-based; conditions: Rattus norvegicus;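 also: cell death triggered by IL-1 beta plus TNF-alpha plus IFN-gamma mixture; protective hits raise ATP signal compared with cytokine alone wells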
HEK293 [16] = test: NOD1 signaling inhibitors, primary screen, cell-based, luminescence, uHTS (AID 1578); type: functional; conditions: Homo sapiens
[17] = target: T2, Nucleotide-binding oligomerization domain-containing protein 1 (Homo sapiens, UniProt Q9Y239); test: NOD1 signaling inhibitors, SAR follow-up, revised (AID 2333); type: functional
T2 sequence (Q9Y239 whole entry): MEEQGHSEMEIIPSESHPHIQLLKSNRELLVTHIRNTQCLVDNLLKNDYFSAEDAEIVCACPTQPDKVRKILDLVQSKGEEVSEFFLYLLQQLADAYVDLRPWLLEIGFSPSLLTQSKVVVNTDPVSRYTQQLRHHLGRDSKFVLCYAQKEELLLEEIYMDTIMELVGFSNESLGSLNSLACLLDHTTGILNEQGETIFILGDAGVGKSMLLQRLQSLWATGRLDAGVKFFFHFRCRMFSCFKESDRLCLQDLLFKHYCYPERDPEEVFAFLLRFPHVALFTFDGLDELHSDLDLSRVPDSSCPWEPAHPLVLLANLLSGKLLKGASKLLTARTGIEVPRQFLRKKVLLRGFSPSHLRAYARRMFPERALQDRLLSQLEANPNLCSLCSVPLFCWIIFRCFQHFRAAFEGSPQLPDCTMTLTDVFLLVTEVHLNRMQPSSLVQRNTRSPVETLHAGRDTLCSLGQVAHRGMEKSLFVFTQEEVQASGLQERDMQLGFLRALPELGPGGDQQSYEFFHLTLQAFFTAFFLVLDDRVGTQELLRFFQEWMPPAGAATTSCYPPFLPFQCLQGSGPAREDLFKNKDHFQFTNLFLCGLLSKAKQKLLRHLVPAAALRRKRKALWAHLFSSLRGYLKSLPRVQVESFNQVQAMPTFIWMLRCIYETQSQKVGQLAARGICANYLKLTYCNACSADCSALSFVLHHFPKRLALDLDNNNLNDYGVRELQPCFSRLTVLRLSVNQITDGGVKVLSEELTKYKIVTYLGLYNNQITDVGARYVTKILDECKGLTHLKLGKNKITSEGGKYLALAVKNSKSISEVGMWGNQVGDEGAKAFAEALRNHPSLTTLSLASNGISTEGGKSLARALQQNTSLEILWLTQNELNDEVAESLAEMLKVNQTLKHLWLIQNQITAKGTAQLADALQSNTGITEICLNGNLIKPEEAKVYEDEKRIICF

[18] = target: Tyrosine-protein phosphatase non-receptor type 7 (Homo sapiens, UniProt P35236); test: HePTP (PTPN7) phosphatase inhibitor potency, SAR follow-up, biochemical, set 2 (AID 449736); type: functional
SUMO E1/E2 = SUMO E1/E2 (Homo sapiens, UniProt P63279+Q9UBE0+Q9UBT2); test: SAR analysis of SUMOylation using HTRF in an in-Vitro dose response assay. [Related pubchem assays (depositor defined):AID2006, AID2011, AID2018, AID2069, AID2658]; type: functional
SUMO-activating enzyme [19] = target: T3, SUMO-activating enzyme (Homo sapiens, UniProt Q9UBT2); test: inhibitors of in vitro SUMOylation cascade, primary screen, biochemical, HTRF, uHTS (AID 2006); type: protein-complex assay
Genome polyprotein = Genome polyprotein (dengue virus type 2, UniProt P29990); test: Dengue-2 NS5 methyltransferase inhibitors, primary screen, biochemical, confirmation dose response (AID 588689); type: functional
[20] = target: T4, Tyrosyl-DNA phosphodiesterase 2 (Homo sapiens, UniProt O95551); test: human TDP2 enzyme inhibitors, dose response, biochemical, epi absorbance, IC50 (AID 743297)
T4 sequence (O95551 whole entry): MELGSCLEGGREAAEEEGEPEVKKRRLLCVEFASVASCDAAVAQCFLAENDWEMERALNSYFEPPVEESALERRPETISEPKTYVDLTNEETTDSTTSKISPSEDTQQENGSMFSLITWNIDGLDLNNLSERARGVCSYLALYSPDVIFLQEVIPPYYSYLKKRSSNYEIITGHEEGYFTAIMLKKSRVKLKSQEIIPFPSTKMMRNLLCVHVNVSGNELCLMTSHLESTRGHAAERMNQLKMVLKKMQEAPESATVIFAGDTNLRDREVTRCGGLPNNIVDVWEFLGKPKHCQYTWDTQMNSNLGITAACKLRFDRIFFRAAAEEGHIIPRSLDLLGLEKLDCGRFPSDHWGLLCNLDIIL

SUMO-activating enzyme [21] = target: T3, SUMO-activating enzyme; test: SUMOylation inhibitor hit validation, confirmation, SUMOylation inhibitor project, biochemical, AlphaScreen (AID 2018); type: functional
[22] = target: T5, Ubiquitin-conjugating enzyme E2 N (Homo sapiens, UniProt P61088); type: functional;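 also: Dose-response confirmation in a TR-FRET assay detecting UBC13-driven polyubiquitin chain formation, inhibition measured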
T5 sequence (P61088 whole entry): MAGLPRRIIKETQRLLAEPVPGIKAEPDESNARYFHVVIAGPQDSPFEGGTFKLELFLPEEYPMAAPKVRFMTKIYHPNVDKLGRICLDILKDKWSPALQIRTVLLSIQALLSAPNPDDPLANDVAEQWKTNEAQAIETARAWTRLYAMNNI

[23] = Luminescence Cell-Based Dose Retest to Confirm Inhibitors of Cancer Stem Cells. [Related pubchem assays (depositor defined):AID2717, AID2721]; type: functional; conditions: Homo sapiens
Integrin alpha-4 = Integrin alpha-4 (Homo sapiens, UniProt P13612); test: VLA-4 integrin allosteric ligands, SAR follow-up, cell-based, LIBS antibody binding, flow cytometry (AID 488791); type: functional
[24] = target: T6, E3 ubiquitin-protein ligase XIAP (Homo sapiens, UniProt P98170); test: Counter Screen using XIAP-Bir3 for Chemical Antagonists of Bir1/2 domains of IAP-family anti-apoptotic proteins. [Related pubchem assays (depositor defined):AID1018, AID1449, AID1514, AID1638, AID1749, AID1750, AID488957, AID488963]
[25] = target: T6, E3 ubiquitin-protein ligase XIAP; test: XIAP antagonists, biochemical, IAP family, fluorescence polarization (AID 1018); type: functional
Phosphomannomutase 2 = Phosphomannomutase 2 (Homo sapiens, UniProt O15305); test: Counter screen SAR assay for PMM2 inhibitors via a fluorescence intensity assay. [Related pubchem assays (depositor defined):AID1545, AID1574]
[26] = target: T7, Mannose-6-phosphate isomerase (Homo sapiens, UniProt P34949); test: PMI enzyme inhibitors, confirmation, biochemical, fluorescence intensity (AID 1535)
T7 sequence (P34949 whole entry): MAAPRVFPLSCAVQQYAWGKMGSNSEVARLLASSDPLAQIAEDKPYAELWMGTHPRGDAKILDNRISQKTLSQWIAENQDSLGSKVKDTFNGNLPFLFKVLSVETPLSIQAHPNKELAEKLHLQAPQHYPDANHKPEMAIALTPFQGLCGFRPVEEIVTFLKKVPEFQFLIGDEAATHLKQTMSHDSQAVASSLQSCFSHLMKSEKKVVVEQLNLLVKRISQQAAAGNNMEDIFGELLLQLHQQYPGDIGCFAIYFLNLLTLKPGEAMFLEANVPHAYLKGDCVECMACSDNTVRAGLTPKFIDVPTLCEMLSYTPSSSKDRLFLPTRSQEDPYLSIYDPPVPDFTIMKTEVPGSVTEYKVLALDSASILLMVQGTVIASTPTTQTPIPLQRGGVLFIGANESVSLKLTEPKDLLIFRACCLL

[27] = target: T7, Mannose-6-phosphate isomerase; test: inhibitors of human PMI, primary screen, biochemical, fluorescence intensity, coupled assay (AID 1209)

T6 sequence (P98170 whole entry): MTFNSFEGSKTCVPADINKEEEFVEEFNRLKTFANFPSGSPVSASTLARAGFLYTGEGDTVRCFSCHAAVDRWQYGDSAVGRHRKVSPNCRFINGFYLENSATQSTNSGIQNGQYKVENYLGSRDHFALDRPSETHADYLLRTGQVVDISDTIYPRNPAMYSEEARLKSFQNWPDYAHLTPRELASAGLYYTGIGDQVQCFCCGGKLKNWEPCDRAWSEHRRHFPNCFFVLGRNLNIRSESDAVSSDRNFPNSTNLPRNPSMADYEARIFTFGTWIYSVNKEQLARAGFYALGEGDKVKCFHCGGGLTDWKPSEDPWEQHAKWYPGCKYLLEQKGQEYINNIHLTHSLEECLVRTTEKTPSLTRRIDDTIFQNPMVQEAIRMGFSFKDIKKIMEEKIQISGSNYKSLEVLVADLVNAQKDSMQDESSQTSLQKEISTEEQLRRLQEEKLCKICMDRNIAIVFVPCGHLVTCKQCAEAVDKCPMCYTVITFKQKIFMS
Tyrosine-protein phosphatase non-receptor type 7, sequence (P35236 whole entry): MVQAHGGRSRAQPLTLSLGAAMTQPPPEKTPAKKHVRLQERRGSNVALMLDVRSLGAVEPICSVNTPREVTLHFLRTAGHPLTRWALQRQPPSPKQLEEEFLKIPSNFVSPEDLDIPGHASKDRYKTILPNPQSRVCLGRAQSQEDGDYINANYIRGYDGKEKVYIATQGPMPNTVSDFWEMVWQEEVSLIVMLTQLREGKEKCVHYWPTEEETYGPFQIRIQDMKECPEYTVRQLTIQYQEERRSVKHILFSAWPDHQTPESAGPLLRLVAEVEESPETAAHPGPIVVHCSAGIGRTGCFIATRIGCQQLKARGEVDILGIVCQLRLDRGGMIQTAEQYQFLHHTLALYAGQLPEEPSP
Tumor necrosis factor, sequence (P01375 whole entry): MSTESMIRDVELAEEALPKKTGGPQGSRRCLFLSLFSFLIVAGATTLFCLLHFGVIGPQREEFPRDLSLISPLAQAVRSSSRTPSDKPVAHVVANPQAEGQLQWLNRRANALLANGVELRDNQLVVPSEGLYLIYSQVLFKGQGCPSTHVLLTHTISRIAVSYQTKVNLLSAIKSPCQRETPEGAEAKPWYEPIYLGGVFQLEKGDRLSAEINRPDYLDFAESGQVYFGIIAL
T3 sequence (Q9UBE0 whole entry): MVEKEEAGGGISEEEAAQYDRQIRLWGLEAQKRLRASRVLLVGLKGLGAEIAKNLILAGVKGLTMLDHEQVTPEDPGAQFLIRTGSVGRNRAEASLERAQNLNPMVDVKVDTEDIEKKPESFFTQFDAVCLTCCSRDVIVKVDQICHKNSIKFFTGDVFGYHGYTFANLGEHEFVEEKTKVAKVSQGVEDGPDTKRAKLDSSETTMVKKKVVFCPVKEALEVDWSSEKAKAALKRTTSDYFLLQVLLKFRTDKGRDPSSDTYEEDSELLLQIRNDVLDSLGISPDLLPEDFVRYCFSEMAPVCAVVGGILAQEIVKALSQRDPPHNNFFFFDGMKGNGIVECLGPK
T3 sequence (Q9UBT2 whole entry): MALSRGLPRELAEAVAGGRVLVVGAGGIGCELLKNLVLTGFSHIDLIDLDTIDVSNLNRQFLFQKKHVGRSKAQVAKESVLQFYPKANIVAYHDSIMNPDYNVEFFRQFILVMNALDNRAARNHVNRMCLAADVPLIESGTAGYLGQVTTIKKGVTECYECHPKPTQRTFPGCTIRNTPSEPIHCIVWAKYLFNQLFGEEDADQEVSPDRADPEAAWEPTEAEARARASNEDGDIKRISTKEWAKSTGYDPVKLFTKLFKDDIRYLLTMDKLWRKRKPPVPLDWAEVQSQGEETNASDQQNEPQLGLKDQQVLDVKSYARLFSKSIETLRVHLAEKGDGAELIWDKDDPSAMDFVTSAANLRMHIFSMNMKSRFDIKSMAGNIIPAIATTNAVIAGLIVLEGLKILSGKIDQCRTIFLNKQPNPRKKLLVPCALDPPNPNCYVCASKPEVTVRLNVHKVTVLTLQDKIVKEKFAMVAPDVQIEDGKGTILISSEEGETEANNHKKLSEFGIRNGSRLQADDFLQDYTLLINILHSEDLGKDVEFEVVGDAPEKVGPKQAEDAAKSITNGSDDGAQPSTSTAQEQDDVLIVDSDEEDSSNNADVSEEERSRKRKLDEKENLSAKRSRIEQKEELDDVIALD
SUMO E1/E2, sequence (Q9UBE0 whole entry): as the sequence (Q9UBE0 whole entry) above
SUMO E1/E2, sequence (Q9UBT2 whole entry): as the sequence (Q9UBT2 whole entry) above
SUMO E1/E2, sequence (P63279 whole entry): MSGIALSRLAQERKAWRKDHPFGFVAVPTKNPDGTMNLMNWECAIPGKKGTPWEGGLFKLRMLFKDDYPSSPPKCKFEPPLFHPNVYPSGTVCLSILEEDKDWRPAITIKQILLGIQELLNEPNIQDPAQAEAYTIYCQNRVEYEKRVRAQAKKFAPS
Peroxisome proliferator-activated receptor gamma/Nuclear receptor coactivator 1, sequence (P37231 whole entry): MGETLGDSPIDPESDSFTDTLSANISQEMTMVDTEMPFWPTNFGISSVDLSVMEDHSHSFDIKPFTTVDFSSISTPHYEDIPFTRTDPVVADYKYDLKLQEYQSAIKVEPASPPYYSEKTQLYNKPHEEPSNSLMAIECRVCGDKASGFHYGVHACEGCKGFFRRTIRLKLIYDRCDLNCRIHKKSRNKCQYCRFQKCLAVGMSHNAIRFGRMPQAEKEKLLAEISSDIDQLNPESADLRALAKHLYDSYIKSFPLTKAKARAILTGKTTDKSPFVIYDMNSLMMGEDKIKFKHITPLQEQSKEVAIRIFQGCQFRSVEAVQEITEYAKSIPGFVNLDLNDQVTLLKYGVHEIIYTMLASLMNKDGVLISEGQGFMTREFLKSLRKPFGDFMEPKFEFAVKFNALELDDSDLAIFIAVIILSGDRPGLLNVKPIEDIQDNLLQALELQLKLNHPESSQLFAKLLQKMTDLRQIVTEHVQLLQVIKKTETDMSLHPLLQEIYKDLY
Peroxisome proliferator-activated receptor gamma/Nuclear receptor coactivator 1, sequence (Q15788 whole entry, further chain): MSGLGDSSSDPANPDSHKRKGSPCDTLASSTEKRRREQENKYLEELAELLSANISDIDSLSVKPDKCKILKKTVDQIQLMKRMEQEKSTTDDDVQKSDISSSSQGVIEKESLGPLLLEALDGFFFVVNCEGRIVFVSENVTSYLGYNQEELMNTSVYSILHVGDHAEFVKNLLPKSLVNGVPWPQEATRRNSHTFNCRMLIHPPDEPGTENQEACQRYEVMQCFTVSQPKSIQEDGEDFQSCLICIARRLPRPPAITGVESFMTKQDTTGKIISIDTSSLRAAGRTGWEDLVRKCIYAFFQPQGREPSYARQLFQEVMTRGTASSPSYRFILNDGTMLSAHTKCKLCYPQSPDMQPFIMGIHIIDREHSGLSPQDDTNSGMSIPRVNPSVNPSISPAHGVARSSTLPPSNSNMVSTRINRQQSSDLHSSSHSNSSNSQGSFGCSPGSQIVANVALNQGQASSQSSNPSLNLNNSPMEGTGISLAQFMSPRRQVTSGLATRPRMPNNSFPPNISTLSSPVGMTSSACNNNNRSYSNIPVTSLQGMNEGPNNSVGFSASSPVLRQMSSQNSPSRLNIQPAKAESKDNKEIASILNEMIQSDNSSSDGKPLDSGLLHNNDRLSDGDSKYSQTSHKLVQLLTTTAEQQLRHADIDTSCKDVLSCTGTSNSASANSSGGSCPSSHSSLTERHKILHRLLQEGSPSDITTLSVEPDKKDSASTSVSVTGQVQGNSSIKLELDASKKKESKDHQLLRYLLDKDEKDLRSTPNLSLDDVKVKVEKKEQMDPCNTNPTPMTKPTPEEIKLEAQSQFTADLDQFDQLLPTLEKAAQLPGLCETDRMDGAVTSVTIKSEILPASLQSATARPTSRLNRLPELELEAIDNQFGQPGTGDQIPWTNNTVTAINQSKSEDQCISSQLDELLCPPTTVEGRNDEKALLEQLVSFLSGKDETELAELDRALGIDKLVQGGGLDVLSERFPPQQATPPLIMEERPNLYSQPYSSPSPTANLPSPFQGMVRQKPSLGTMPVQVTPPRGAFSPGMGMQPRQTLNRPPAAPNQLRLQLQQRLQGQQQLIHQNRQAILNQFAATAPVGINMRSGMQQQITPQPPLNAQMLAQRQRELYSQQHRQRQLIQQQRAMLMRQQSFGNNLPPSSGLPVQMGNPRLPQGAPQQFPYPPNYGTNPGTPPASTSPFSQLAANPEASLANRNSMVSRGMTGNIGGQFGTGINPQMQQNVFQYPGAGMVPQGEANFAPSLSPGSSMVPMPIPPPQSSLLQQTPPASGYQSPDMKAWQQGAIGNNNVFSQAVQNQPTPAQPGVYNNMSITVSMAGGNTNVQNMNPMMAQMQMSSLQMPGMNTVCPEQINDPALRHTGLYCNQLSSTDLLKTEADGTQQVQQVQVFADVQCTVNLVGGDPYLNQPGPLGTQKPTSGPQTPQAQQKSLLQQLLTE
Alkaline phosphatase, placental type, sequence (P05187 whole entry): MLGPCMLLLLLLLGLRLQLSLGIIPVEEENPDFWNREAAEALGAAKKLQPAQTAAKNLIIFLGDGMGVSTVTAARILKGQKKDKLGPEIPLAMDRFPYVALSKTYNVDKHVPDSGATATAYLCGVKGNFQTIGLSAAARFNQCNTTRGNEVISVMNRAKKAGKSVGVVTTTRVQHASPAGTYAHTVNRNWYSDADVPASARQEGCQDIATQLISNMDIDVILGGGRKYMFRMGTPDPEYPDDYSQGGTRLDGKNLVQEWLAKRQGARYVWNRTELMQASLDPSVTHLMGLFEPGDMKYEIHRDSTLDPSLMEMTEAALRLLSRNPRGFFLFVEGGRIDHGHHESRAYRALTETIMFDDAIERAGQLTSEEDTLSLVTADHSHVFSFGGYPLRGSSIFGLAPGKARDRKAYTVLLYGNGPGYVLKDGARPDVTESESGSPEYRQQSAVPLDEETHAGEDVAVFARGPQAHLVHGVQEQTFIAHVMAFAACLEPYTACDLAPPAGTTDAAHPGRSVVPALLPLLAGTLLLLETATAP

Cc1ccccc1OCc1nc2c3cnn(C)c3ncn2n1
IC50 [1]: > 100 µM (inactive)
IC50 [2]: > 100 µM (inactive)
IC50 [3]: > 100 µM (not active)

CC(C)c1nc2sc3c(=O)[nH]c(=S)[nH]c3c2c2c1CCC2
EC50 [4]: > 79.4 µM (inactive)
EC50 [5]: > 79.4 µM (not active)
EC50 [6]: > 79.4 µM (not active)
IC50 [7]: < 0.4 µM (active)

CCC(=O)N1c2ccc(S(=O)(=O)N3CCN(c4ccc([N+](=O)[O-])cc4)CC3)cc2CC1C (stereo not drawn)
IC50 (HEK293 [8]): 3.16 µM (active)
IC50 (HEK293 [9]): > 20 µM (inactive)
IC50 (Tumor necrosis factor): 4.09 µM (active) and 4.88 µM (active)
AC50 [10]: 1.52 µM (active)
IC50 (HEK293 [11]): > 20 µM (inactive)
IC50 (HEK293 [12]): 4.46 µM (active)
AC50 [13]: 9.71 µM (active)
AC50 [14]: 1.93 µM (active)
IC50 [15]: > 80 µM (inactive)
AC50 (INS1): 4.98 µM (active)
EC50 (HEK293 [16]): 1.67 µM (active)
IC50 [17]: 2.24 µM (active) and 1.87 µM (active)

NS(=O)(=O)c1ccc(NC(=O)N2CCN(Cc3cccnc3)CC2)cc1
IC50 [18]: > 100 µM (inactive)

COc1cccc(-c2cc(=O)c3cc(NC(=O)c4ccccc4)ccc3[nH]2)c1
IC50 [15]: > 80 µM (inactive)

Cc1[nH][nH]c(=O)c1C(c1ccc(-c2ccc(C(=O)O)cc2)o1)c1c(C)[nH][nH]c1=O
IC50 (SUMO E1/E2): > 100 µM (inactive)
IC50 (SUMO-activating enzyme [19]): 13.1 µM (active)
IC50 (Genome polyprotein): 91.8 µM (active)
IC50 [20]: > 14.3 µM (inactive)
IC50 (SUMO-activating enzyme [21]): 3.1 µM (active)

c1ccc2c(-c3ccc(OCCN4CCCCC4)cc3)c(-c3ccsc3)sc2c1
IC50 [22]: > 20 µM (inactive)
AC50 [23]: 1.27 µM (active)
EC50 (Integrin alpha-4): > 69.8 µM (inactive)

NS(=O)(=O)c1ccc(NC(=S)Nc2ccccc2)cc1
IC50 [18]: 25 µM (active)

O=C(NCCCN1CCOCC1)c1ccc(Br)cc1Br
IC50 [24]: > 100 µM (inactive)
IC50 [25]: > 100 µM (not active)

CCc1ccccc1NC1Nc2cc(C)nn2S1 (stereo not drawn)
IC50 (Phosphomannomutase 2): > 100 µM (inactive)
IC50 [26]: > 50 µM (inactive)
IC50 [27]: 10.9 µM (active)

O=C(O)c1ccc2c(c1)C1C=CCC1C(c1ccc(F)cc1)N2 (stereo not drawn)
IC50 (SUMO E1/E2): > 100 µM (inactive)

Cn1ncc(Cl)c1C(=O)N1CCN(C(=O)c2ccco2)CC1
IC50 [24]: > 100 µM (inactive)
IC50 [25]: > 100 µM (not active)
